Key:
Fms kinase = Fms kinase (Homo sapiens (Human), UniProt P07333); assay: Fms kinase biochemical activity assay (AlphaScreen, biotin-(E4Y)10 phosphorylation); conditions: 100 μM ATP; read-out: Biochemical (IC50 μM) Fms
Method: In one assay the biochemical activity IC50 values are determined with respect to inhibition of Fms kinase activity, where inhibition of phosphorylation of a peptide substrate is measured as a function of compound concentration. Compounds to be tested, dissolved in DMSO (1 μL), are added to a white 384-well plate (Costar #3705). Working stocks of Fms kinase (Invitrogen #PV3249), biotin-(E4Y)10 substrate (Upstate Biotech, Cat#12-440), and ATP (Sigma, Cat#A-3377) are prepared in 25 mM Hepes pH 7.5, 0.5 mM MgCl2, 2 mM MnCl2, 2 mM DTT, 0.01% BSA, and 0.01% Tween-20. All components are added to the 384-well plate for a final concentration of 1 ng/well Fms, 30 nM biotin-(E4Y)10 (Upstate Biotechnology) and 100 μM ATP in a volume of 20 μL. Each sample is at 5% DMSO. The plate is then incubated for 20 minutes at 30° C. Just before use, working stocks of donor and acceptor beads from the AlphaScreen PY20 Detection Kit (PerkinElmer, Cat#676601M) are prepared in 25 mM Hepes pH 7.5, pH 7.4, 100 mM EDTA, 0.01% BSA. To stop the reaction, the plate is uncovered in the dark and 5 μL of Donor Beads solution (Streptavidin beads) is added to each well. The plate is incubated at room temperature for 20 minutes. Five microliters of Acceptor Beads solution (PY20 coated beads) are then added to each well. The final concentration of each bead is 10 μg/mL. The plates are incubated at room temperature for 60 minutes. Fluorescence signal is recorded on the Envision reader. […] The signal vs. compound concentration is used to determine the IC50.

Flt-3 kinase = Flt-3 kinase (Homo sapiens (Human), UniProt P36888); assay: Flt-3 kinase biochemical activity assay (AlphaScreen, biotin-(E4Y)10 phosphorylation); conditions: 100 μM ATP
Flt-3 kinase, sequence (P36888 27-993): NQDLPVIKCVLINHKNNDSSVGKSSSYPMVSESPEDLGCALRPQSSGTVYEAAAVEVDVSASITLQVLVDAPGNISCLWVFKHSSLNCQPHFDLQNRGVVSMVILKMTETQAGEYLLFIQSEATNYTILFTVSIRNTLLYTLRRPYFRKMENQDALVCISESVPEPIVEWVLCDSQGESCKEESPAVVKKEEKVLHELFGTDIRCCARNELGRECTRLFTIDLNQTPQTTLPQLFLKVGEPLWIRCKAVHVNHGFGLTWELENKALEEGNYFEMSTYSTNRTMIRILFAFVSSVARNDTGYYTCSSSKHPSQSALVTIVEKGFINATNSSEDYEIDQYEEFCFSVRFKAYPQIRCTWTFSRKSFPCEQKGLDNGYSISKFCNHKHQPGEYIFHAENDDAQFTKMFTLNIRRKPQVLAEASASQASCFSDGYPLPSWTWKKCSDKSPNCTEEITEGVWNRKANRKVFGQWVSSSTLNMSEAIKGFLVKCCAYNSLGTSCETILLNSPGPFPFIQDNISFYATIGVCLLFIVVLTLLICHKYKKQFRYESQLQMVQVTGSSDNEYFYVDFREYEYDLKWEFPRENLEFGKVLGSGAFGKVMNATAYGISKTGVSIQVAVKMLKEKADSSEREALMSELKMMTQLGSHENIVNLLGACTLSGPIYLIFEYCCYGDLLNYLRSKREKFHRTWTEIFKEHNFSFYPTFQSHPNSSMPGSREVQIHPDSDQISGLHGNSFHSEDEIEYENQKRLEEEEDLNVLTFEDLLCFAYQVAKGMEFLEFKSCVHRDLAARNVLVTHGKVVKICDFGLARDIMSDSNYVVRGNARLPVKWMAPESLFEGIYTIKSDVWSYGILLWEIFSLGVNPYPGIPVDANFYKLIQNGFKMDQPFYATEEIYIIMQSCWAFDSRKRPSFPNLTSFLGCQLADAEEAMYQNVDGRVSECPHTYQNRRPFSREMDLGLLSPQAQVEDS
Method: In one assay the biochemical activity IC50 values are determined with respect to inhibition of Flt-3 kinase activity, where inhibition of phosphorylation of a peptide substrate is measured as a function of compound concentration. Compounds to be tested, dissolved in DMSO (1 μL), are added to a white 384-well plate (Costar #3705). Working stocks of Flt-3 kinase (Invitrogen), biotin-(E4Y)10 substrate (Upstate Biotech, Cat#12-440), and ATP (Sigma, Cat#A-3377) are prepared in 25 mM Hepes pH 7.5, 5 mM MgCl2, 5 mM MnCl2, 1 mM DTT, and 0.01% Tween-20. All components are added to the 384-well plate for a final concentration of 1 ng/well Flt-3, 30 nM biotin-(E4Y)10 and 100 μM ATP in a volume of 20 μL. Each sample is at 5% DMSO. The plate is then incubated for 1 hour at room temperature. Just before use, working stocks of donor and acceptor beads from the AlphaScreen PY20 Detection Kit (PerkinElmer, Cat#676601M) are prepared in 25 mM Hepes pH 7.5, pH 7.4, 100 mM EDTA. 0.3% BSA. To stop the reaction, the plate is uncovered in the dark and 5 μL of Donor Beads solution (Streptavidin beads) is added to each well. The plate is incubated at room temperature for 20 minutes. Five microliters of Acceptor Beads solution (PY20 coated beads) are then added to each well. The final concentration of each bead is 10 μg/mL. The plates are incubated at room temperature for 60 minutes. Fluorescence signal is recorded on the Envision reader. Phosphorylated substrate results in binding of the PY20 antibody and association of the donor and acceptor beads such that signal correlates with kinase activity. The signal vs. compound concentration is used to determine the IC50.

BCR-FMS/BaF3 cells = BCR-FMS/BaF3 cells (Homo sapiens, UniProt P07333); assay: BCR-FMS/BaF3 cell proliferation assay (ATPlite); format: cell-based; conditions: read-out: Cell based (IC50 μM) BCR/BaF3 (Fms); BCR-FMS/BaF3 cells, 3 days
BCR-FMS/BaF3 cells, sequence (P07333 20-972 limits assumed, change not shown): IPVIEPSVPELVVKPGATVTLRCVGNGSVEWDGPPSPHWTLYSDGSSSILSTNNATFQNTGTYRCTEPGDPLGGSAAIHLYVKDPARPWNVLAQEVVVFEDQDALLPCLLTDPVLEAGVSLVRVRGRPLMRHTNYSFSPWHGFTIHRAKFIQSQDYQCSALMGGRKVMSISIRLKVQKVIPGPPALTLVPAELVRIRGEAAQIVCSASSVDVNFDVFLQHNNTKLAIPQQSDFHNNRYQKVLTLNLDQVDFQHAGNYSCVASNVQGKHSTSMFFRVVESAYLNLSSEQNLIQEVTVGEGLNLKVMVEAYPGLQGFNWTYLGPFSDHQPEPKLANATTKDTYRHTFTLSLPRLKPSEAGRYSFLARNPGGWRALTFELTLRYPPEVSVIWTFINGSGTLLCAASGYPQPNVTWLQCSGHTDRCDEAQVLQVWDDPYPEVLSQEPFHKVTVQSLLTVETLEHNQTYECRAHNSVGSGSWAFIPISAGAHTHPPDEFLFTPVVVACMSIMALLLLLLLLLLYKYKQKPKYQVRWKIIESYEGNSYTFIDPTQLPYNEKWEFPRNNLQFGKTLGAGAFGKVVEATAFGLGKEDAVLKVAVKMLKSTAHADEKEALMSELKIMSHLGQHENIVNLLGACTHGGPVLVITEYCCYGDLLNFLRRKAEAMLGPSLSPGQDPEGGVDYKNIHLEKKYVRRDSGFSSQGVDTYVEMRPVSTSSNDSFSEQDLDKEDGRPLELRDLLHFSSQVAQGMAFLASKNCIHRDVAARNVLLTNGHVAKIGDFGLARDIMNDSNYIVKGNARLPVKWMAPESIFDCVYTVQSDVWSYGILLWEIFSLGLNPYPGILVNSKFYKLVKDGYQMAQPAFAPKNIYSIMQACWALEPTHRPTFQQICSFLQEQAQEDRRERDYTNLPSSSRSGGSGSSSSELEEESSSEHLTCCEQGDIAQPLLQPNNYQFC
Method: Compounds are assessed in a variety of cell based assays. For example BCR-FMS/BaF3, BCR-KIT/BaF3, M-NFS-60, M-07e, and BAC1.2F5 cell proliferation assays are used to assess inhibitory activity of Fms or Kit and MV-4-11 cell proliferation assay is used to assess inhibitory activity in Flt-3. […] On day 1, cells are counted, then centrifuged in a conical tube for 5 minutes at 1000 rpm. The supernatant is removed and cells are re-suspended as follows: • BCR-FMS/BaF3 and BCR-KIT/BaF3: resuspend in growth media+1 mg/mL G418 (without WEHI/IL-3) to 2×10^5 cells/mL. • M-NFS-60: resuspend in growth media +62 ng/mL murine M-CSF to 5×10^5 cells/mL. • M-07e: resuspend in growth media +200 ng/mL human SCF to 5×10^5 cells/mL. • BAC1.2F5: resuspend in growth media +36 ng/mL murine M-CSF to 1.4×10^5 cells/mL. • MV-4-11: resuspend in growth media +10% FBS to 5×10^5 cells/mL. […] On day 2, compound at a maximum concentration of 5 mM is serially diluted 1:3 for a total of 8 point titration with DMSO as a control. A 1 μL aliquot of each dilution point is added to 249 μL growth media and 50 μL is added to a well containing cells, providing 10 μM compound for the maximum concentration point. The cells are incubated for 3 days at 37° C. in 5% CO2. […] ATPlite is added to each well as follows: • BCR-FMS/BaF3 and BCR-KIT/BaF3: 25 μL per well. • M-NFS-60: 25 μL per well. • M-07c: 40 μL per well. • BAC1.2F5: 50 μL per well. • MV-4-11: 40 μL per well. The cells are incubated at room temperature for 10 minutes, then luminescence is read on Safire reader. The measured luminescence correlates directly with cell number, such that the reading as a function of compound concentration is used to determine the IC50 value.

Measured: IC50

Fms kinase, sequence (P07333 20-972): as the sequence (P07333 20-972 limits assumed, change not shown) above

COc1ncc(CNc2ccc(Cc3c[nH]c4ncc(C(F)(F)F)cc34)c(F)n2)cc1F [Compound P-1646, (5-Fluoro-6-methoxy-pyridin-3-ylmethyl)-[6-fluoro-5-(5-trifluoromethyl-1H-pyrrolo[2,3-b]pyridin-3-ylmethyl)-pyridin-2-yl]-amine]
< 0.1 µM: all assays above

Fc1cc(CNc2ncc(Cc3c[nH]c4ncc(Cl)cc34)cn2)cc(C(F)(F)F)c1 [Compound P-2009, [5-(5-Chloro-1H-pyrrolo[2,3-b]pyridin-3-ylmethyl)-pyrimidin-2-yl]-(3-fluoro-5-trifluoromethyl-benzyl)-amine]
< 0.1 µM: all assays above

FC(F)(F)c1cnc2[nH]cc(Cc3ccc(NCc4ccc(C(F)(F)F)nc4)nc3)c2c1 [Compound P-1644, (6-Trifluoromethyl-pyridin-3-ylmethyl)-[5-(5-trifluoromethyl-1H-pyrrolo[2,3-b]pyridin-3-ylmethyl)-pyridin-2-yl]-amine]
< 0.1 µM: all assays above
